Data as given in patent US9770045B2, “Preservation of animal feed and hydrolysis of polysaccharides using amino acids as salts or with acids” (priority 2015, dated 2017).
Where a name gives a salt, the structure may show the parent alone.

How the values were obtained:
[1] = for rate in hydrolyzing switch grass: 60° C., one hour (FIG. 4)
Description: (§1) Switch Grass Hydrolysis. […] The samples were heated to 60° C. Approximately 0.1 grams of switch grass was measured and added to each sample. The acid/switch grass mixtures were placed in an incubator set at 60° C. for one hour. At 0, 10, 20, 40, and 60 minutes, 0.4 mL were taken from the samples and neutralized to a high pH (>10) with 0.6 mL of a concentrated aqueous NaOH solution.
(§2) Switch Grass DNS Assay. To each of the neutralized mixtures, 0.2 mL of DNS solution (1% dinitrosalicyclic acid, 0.02% phenol, 0.25 M NaOH) was added. These samples were then placed in boiling water for approximately ten minutes until the brown color remained stable. Then 0.2 mL of each sample was mixed with 0.2 mL of a 40% potassium sodium tartrate solution and 1 mL of deionized water. The solutions were allowed to cool to room temperature and then the absorbance was recorded at 570 nm.

[2] = Cellulose (carboxymethylcellulose) hydrolysis, DNS sugar assay; conditions: carboxymethylcellulose (FIG. 2, FIG. 5)
Text: Dinitrosalicyclic Acid Sugar Assay. The DNS sugar assay utilizes the reduction of dinitrosalicyclic acid by simple monosaccharides to create a change in color, respective the concentration of sugar in each sample (Rivers). A 1% dinitrosalicyclic acid solution was created with 0.25 M NaOH and […]. Another solution of 40% Sodium Potassium Tartrate was made to act as a color stabilizer to be added to the sample after the reaction. This procedure requires the experimental sample to be mixed with the DNS Assay solution and heated at approximately 100° C. for ten minutes. After the colorimetric reaction has occurred, the sodium potassium tartrate solution is added to stabilize the color change. The resulting color change can be measured using the wavelength of 570 nm.
Cellulose Hydrolysis. 5 mL of each acid was added to a glass container. Then, 0.1 grams of carboxymethylcellulose was slowly poured in to each sample. The containers were then capped and placed in a 60° C. incubator. At specific time intervals, 0.4 mL were taken and neutralized by 0.6 mL of a strong KOH solution to a pH above 10 in 1.5 mL microfuge tubes. Then 0.2 mL of the DNS Assay solution was added to each sample, which were then placed in a boiling water bath for ten minutes. […] The absorbance of the samples were then measured at 570 nm in a UV-Vis spectrophotometer and compared to a standard curve.

[3] = 60° C., one hour (FIG. 3)
Description: as §1, with “Seaweed” for “Switch Grass”, “seaweed” for “switch grass”, “acid/seaweed” for “acid/switch grass”, “twenty minute intervals,” for “0, 10, 20, 40, and 60 minutes,”
as §2, with “Seaweed” for “Switch Grass”, “The samples were then removed and 0.4” for “Then 0.2 mL of each sample was mixed with 0.2”, “was added to stabilize the color.” for “and 1 mL of deionized water.”

| SMILES | rate in hydrolyzing switch grass [1] | pH change after switch grass hydrolysis [1] | hydrolysis rate [2] | rate in hydrolyzing seaweed [3] |
| --- | --- | --- | --- | --- |
| NCC(=O)O [6M Glycine—HCl, glycine hydrochloride] | about the same rate | lowered | equal to that of Oil Safe AR® | about the same rate |
| Cl [6M HCl, hydrochloric acid, reference compound] | about the same rate | increased |  | about the same rate |
